The values below come from PMC4414144, “Plasmin releases the anti-tumor peptide from the NC1 domain of collagen XIX” (Oncotarget, 2015).

Entries after “also recorded” stand apart in the source; their conditions may differ. Where only a bound is given, the exact number is not on record here.

Series [1] can be described thus: Intra-chain disulfide bond formation in solution. The class given is physicochemical. The settings on record: for Time for spontaneous intra-chain disulfide bond formation (C^1123-C^1128): in solution; for Intra-chain disulfide bond formation Cys^1123-Cys^1128: in solution over the time, MALDI-ToF MS. The procedure:
(§1) Solutions of matrix α–cyano-4-hydroxycinnamic acid (CHCA) was prepared as a saturated solution in ACN/water (1/1; v/v) containing 0.1% TFA (10 mg/mL). Samples were prepared at a concentration of 10 pmol/μL in water containing 0.1% TFA. Typically, 1 μL of the matrix was pipetted on the MALDI target plate. Then 1 μL of analyte was added and air-dried for MALDI-ToF MS analysis.
(§2) MS experiments were performed using micromass MALDITM–LR time-of-flight mass spectrometer (Waters MS technologies, Manchester, UK) equipped with a nitrogen UV laser (337 nm wavelength), reflectron optics, a fast dual micro-channel plate (MCP) detector and a high magnification camera system. Positive ion spectra were acquired in reflectron mode. The following voltages were applied: pulse 1940 V, MCP 2380 V, suppression 500, flight tube 12000 V, reflectron 5200 V. A time lag focusing (TLF) delay of 680 ns was used between the time of laser pulse and the application of the accelerating voltage. Samples were analyzed in reflectron acquisition mode in the mass range 550-4000 Da. Mass calibration was performed using a peptide mixture composed of Bradykinin fragment 1–5 (573.31 Da), human Angiotensin II (1046.54 Da), Neurotensin (1672.92 Da), ACTH clip (2465.20 Da), bovine Insulin ß-chain oxidized (3494.65 Da) and bovine Insulin (5730.61 Da).

A further series deals with MT1-MMP. Put plainly: P36 peptide cleavage by MT1-MMP. Format: biochemical. The note with it: preliminary experiments, data not shown.
In another series the test system is MMP-1. Put plainly: P36 peptide cleavage by MMP-1. Format: biochemical. The note with it: preliminary experiments, data not shown.
The test system of series [2] is plasmin. Put plainly: P36 peptide digestion in SKMEL28 melanoma cell cultures. The class given is cell-based, human. The note with it: MALDI-ToF MS. As for the experimental part: (§3) Human melanoma cell line (SKMEL28) was purchased from the American Type Culture Collection (ATCC, Manassas, VA). Cells were grown in Dulbecco's Modified Eagle's medium (DMEM) supplemented with 10% Fetal Bovine Serum (FBS), 1% penicillin and streptomycin (PenStrep®, Gibco®, France) in Nunclon® 75 cm^2 flasks (Dutscher, Brumath, France) at 37°C in a humid atmosphere (5% CO2, 95% air). Murine melanoma B16F1 cells, were a generous gift of Dr. M. Grégoire (INSERM UMRS 419, Nantes, France). They were grown in RPMI 1640 medium supplemented with 5% FBS in Nunclon 25 cm^2 flasks at 37°C in a humid atmosphere (5% CO2, 95% air). All culture media and reagents were purchased from Life Technologies (Invitrogen, Strasbourg, France).
SKMEL28 were incubated in DMEM with 20 μL plasminogen (40 μg/mL) and/or 20 μL plasmin (10 μg/mL) and/or aprotinin (10^−5 M) and P36 peptide. Samples were analyzed using HPLC and Matrix Assisted Laser Desorption Ionisation – Time of flight protocol (MALDI-ToF) as described below.
siRNA specific to human tPA (FlexiTube GeneSolution for PLAT) was purchased from Qiagen (Courtaboeuf, France). The siRNA target different regions of the tPA mRNA: 1st siRNA target sequence (5′-[…]-3′), 2nd siRNA target sequence (5′-[…]-3′), 3rd siRNA target sequence (5′-[…]-3′) and 4th siRNA target sequence (5′-[…]-3′). Exponentially growing SKMEL28 cells were transfected with siRNA pools (20 nM) using lipofectamine™ 2000. Decrease of tPA mRNA expression was assessed by RT-qPCR at 48 h after transfection. Decrease of tPA protein expression was monitored by zymography and immunocytofluorescence 72 h after siRNA transfection. Cells were subjected to plasminogen treatment for P36 peptide cleavage 24 h after transfection.

The subject of another series is MMP-9. In words: P36 peptide cleavage by MMP-9. The class given is biochemical. The settings on record: preliminary experiments, data not shown.
Series [3] deals with T1, plasmin (Homo sapiens, UniProt P00747).
T1 construct: purchased Merck, Darmstadt
In words: P36 peptide digestion in vitro by plasmin (HPLC, MALDI-ToF MS). The class given is biochemical. The note with it: for Effect on P36 peptide plasmin digestion: 16 h, E:S 1:50, HPLC. As for the experimental part: Lyophilized plasmin with a specific activity of 10 U/mg (Merck, Darmstadt, Allemagne) was dissolved in sterile water to a concentration of 1 mg/mL. In control sample, P36 peptide (6.79 × 10^−4 M) was incubated overnight at 37°C in a Tris-HCl buffer (150 mM NaCl, 5 mM CaCl2, 50 mM Tris-HCl, pH 7.5). […] Aliquots were analyzed by HPLC as described below.
Dose-dependent digestion of P36 peptide by plasmin was measured by incubating P36 peptide 16 h at 37°C with different plasmin concentrations. Time-dependent analysis of P36 peptide cleavage by plasmin was obtained by incubating P36 with plasmin (E:S 1:50 at 37°C) during different time. Cleavage of the peptide was monitored by HPLC using method 1.
HPLC samples (20 μL of each sample with 30 μL of 0.1% trifluoroacetic acid) were injected on a Waters Alliance 2695 HPLC system, equipped with a photodiode array 2996 PDA detector, fraction collector III (WFC III) and the Empower^TM chromatography software for data acquisition (Milford, MA, USA). The column used was a EC 250/4 Nucleosil reversed phase (5 μm particle size, 100 Å pore size, 4 × 250 mm) which was protected by a guard column CC 8/4 Nucleosil 300-5 C4 (Macherey-Nagel, Düren, Germany). The injection volume was 20 μL and detection was performed at λ = 214 nm. Eluants were 0.1% trifluoroacetic acid in water (A) and 0.1% trifluoroacetic acid in 80% acetonitrile (B). The analyses followed a linear gradient program with a flow at 0.8 mL/min. Two method conditions were used:
as §1, §2

The target of series [4] is T1, plasmin. In words: Kinetic analysis of P36 peptide cleavage by plasmin (KM, Kcat). The class given is biochemical. The settings on record: P36 8, 16, 32, 64 nM; 1.25 nM plasmin; 30 min, 37°C; HPLC; double-reciprocal plot. As for the experimental part:
Michaelis constant (KM) and first-order rate constant of substrate peptide turnover (Kcat) were obtained by digestion of P36 peptide (8, 16, 32, 64 nM), for 30 min at 37°C in the presence of 1.25 nM plasmin. Cleavage of the peptide was monitored by HPLC. From these measurements, Kcat and KM were calculated using double-reciprocal plot of 1/[S] versus 1/v.

The next series has as its system MMP-2. Put plainly: P36 peptide cleavage by MMP-2. The note with it: preliminary experiments, data not shown. The class given is biochemical.
The subject of another series is B16F1 cells. Put plainly: In vivo murine melanoma model, tumor growth. Also noted: species or system mouse (murine B16F1 melanoma in C57Bl6 mice). The note with it: day 15; B16F1 cells pre-incubated 30 min with F4, s.c.; re-injected i.p. day 7 and 14; ten mice; p < 0.05 vs controls. The procedure: as §3
C57Bl6 mice (average body weight: 16–18 g) were purchased from Harlan France (Gannat, France). The in vivo experiments were conducted according to the ethical guidelines of the Centre National de la Recherche Scientifique (CNRS). In vivo melanoma model was previously described (Ramont et al., 2007). Briefly, 2.5 × 10^5 B16F1 cells, pre-incubated (30 min) with either control medium or F4 peptide, were subcutaneously injected into the left side of 10 syngenic C57BL6 mice. Treatments were re-injected intraperitoneally at day 7 and 14. Tumor size was measured regularly.

The next series relates to SKMEL28 cells. Put plainly: Scratch wound assay. Format: cell-based, human. The note with it: F4 200 μg/mL, p < 0.05 vs control, five experiments. The procedure:
as §3
SKMEL28 cells (5 × 10^4 per well) were seeded in 24-well plates and cultivated to confluence in DMEM supplemented with 5% FBS. The cell layer was then wounded with a sterile 100 to 1000 μL pipet tip and re-incubated in fresh culture medium in the absence or presence of F4 peptide. After 24 h, 48 h or 72 h, cells were photographed and the size of the remaining wound measured.

For series [5], the system named is plasmin. In words: Plasmin activity measurement in SKMEL28 culture, chromogenic substrate S-2251. The class given is cell-based, human. The note with it: SKMEL28 with plasminogen; S-2251 hydrolysis at 405 nm. The procedure:
After washing with DPBS, cells were incubated in DMEM with/without 20 μL plasminogen (40 μg/mL) and/or 20 μL plasmin (10 μg/mL) and/or 20 μL plasmin chromogenic substrate (250 μg/mL). Hydrolysis of the S-2251 chromogenic substrate (Chromogenix, distributed by Hyphen Biomed, Neuville sur Oise, France) was measured at 405 nm at different time.

The subject of series [6] is experimental cancer models. The settings on record: cited from earlier work. An excerpt: The basement membrane is a complex structure mainly composed of laminins, nidogens, heparan sulfate proteoglycans (perlecan and/or agrin), and type IV collagen. More recently, associations between basement membrane and minor collagens such as type XVIII, XV or type XIX were reported and named basement membrane zone. These collagenous components associated with the basement membrane represent a dynamic interface between this structure and the stroma. Basement membrane has long been described as a simple architectural cell support. […] For instance, endostatin, the NC1 domain of type XVIII collagen, is released by many proteases such as MMP-3, 7, 9, 12, 13, 20 [14, 35, 36], or cathepsins B, L, S, V [37, 38, 39]. […] Tumstatin, the NC1 domain of type IV collagen is generated in vivo by MMP-9 [7]. It exerts anti-tumor and anti ...

Setting [7] is: SKMEL28, plasminogen + aprotinin (10^−5 M).
The mark [8] stands for this setting: SKMEL28, plasminogen added (20 μL, 40 μg/mL).
Where [9] appears, read: E:S 1:50, 37°C, 0, 5, 30, 60 min, HPLC method 1.

T1 sequence (P00747 97-580 partner limits assumed, species assumed): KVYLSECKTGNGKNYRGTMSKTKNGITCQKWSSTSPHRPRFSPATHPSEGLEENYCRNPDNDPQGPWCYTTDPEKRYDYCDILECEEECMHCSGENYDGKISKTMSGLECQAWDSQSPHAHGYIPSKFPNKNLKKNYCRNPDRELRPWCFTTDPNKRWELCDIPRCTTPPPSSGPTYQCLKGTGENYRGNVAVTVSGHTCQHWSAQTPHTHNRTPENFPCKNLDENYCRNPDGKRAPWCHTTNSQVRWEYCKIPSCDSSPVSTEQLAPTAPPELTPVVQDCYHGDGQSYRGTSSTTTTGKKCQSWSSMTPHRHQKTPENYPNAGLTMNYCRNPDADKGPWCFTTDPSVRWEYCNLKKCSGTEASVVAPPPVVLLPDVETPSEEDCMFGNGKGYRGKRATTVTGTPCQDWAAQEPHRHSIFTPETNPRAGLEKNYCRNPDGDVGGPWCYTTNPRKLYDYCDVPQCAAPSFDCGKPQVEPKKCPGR
T1 sequence (P00747 581-810 limits assumed, species assumed): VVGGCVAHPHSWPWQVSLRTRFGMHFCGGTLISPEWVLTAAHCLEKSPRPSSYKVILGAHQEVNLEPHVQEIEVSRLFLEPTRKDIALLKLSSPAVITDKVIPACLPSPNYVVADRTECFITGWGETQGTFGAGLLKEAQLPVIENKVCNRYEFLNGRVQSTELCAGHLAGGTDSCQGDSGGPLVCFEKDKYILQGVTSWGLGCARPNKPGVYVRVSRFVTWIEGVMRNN

Take “(SPGAPGPQGPPGPSGRC) and the totality of the C-terminal NC1(XIX) domain (NPEDCLYPVSHAHQRTGGN) [P36, synthetic peptide composed of the last 36 residues of the human α1(XIX) chain]”: in series [1], the “Time for spontaneous intra-chain disulfide bond formation (C^1123-C^1128)” value is listed as “less than 1 h” and the “Intra-chain disulfide bond formation Cys^1123-Cys^1128” value is given as “formed an intra-chain disulfide-bond”. The “Cleavage of P36 by MT1-MMP” value in the series with MT1-MMP was “Neither MMP-1, MMP-2, MMP-9 nor MT1-MMP were capable to cleave the P36 peptide”. Also, the “Cleavage of P36 by MMP-1” value with MMP-1 is listed as “Neither MMP-1, MMP-2, MMP-9 nor MT1-MMP were capable to cleave the P36 peptide”. The “Release of fragments / cleavage of P36 in cell culture” value in the series with plasmin [2] (SKMEL28, no added plasminogen) was “no cleavage of P36 peptide occurred”. Besides, the “Cleavage of P36 in cell culture in presence of aprotinin” value with plasmin [2] (setting [7]) is listed as “no cleavage of P36 occurred”. The “Release of fragments / cleavage of P36 in cell culture” value in the series with plasmin [2] (setting [8]) is “P36 peptide disappeared”. For the same substance, in the series on MMP-9, the “Cleavage of P36 by MMP-9” value is given as “Neither MMP-1, MMP-2, MMP-9 nor MT1-MMP were capable to cleave the P36 peptide”. On plasmin [3] (setting [9]), the “Dependence of digestion on time” value was “time-dependent” and the “Time at which P36 peptide was cleaved by plasmin” value was at most 5 min. In addition, the Plasmin cleavage site entry at plasmin [3] (E:S 1:50, 16 h, 37°C, Tris-HCl pH 7.5, MALDI-ToF MS) is “Arg1138-Thr1139; also recorded: Arg1122-Cys1123”. Also, on plasmin [3] (plasmin 1:50 to 1:400, overnight/16 h, 37°C, HPLC method 1), the “Dependence of digestion on plasmin dose” value is listed as “dose-dependent”. This substance returned a Kcat at plasmin [4] of 0.077 s⁻¹. Moreover, in the series with MMP-2, the “Cleavage of P36 by MMP-2” value is listed as “Neither MMP-1, MMP-2, MMP-9 nor MT1-MMP were capable to cleave the P36 peptide”.

For the substance CNPEDCLYPVSHAHQR [F4], the “Time for spontaneous intra-chain disulfide bond formation (C^1123-C^1128)” value in [1] is “less than 1 h”. The “Intra-chain disulfide bond formation Cys^1123-Cys^1128” value in [1] is on record as “formed an intra-chain disulfide-bond”. In addition, the “Release of fragments / cleavage of P36 in cell culture” value with plasmin [2] (SKMEL28, no added plasminogen) is listed as “no release”; in the series on plasmin [2] (setting [8]) it was “released”. In addition, the “Change in tumor growth (tumor volume)” value with B16F1 cells is reported as −30%. Also, the “Change in wound closure” value with SKMEL28 cells (24 h) is listed as −53%; in the series on SKMEL28 cells (48 h), −39%; with SKMEL28 cells (72 h) it was −36%.

Consider “SPGAPGPQGPPGPSGR [F2, … Col1 domain of P36 peptide]”, for which the “Release of fragments / cleavage of P36 in cell culture” value was “no release” in the series on plasmin [2] (SKMEL28, no added plasminogen) and “released” in the series with plasmin [2] (setting [8]).

Turning to aprotinin [reference compound], the “Effect of aprotinin on release of F2, F3 and F4” value with plasmin [2] (setting [7]) is “abolished this release”. Also, the “Effect on P36 peptide plasmin digestion” value is recorded as “completely abolished” at plasmin [3] (aprotinin 10^−5 M, 37°C); “completely abolished” on plasmin [3] (aprotinin 10^−6 M, 37°C); “not sufficient to prevent it” on plasmin [3] (aprotinin 10^−7 M, 37°C). In addition, the “Inhibition of plasmin activity” value with plasmin [5] is listed as “completely inhibited plasmin activity”.

Consider endostatin, for which the Anti-tumor properties entry in [6] (number of experimental cancer models, ref [7], [43]) is given as “exerts significant anti-tumor properties”. For the same substance, the “Metastatic potential of cells” value in series [6] (ref [38]) is recorded as “reduces metastatic potential of cells”.
